# Measurements taken from patent US20190343908A1, “Therapeutic Combination for the Treatment of Cancer” (Nerium Biotechnology Inc., priority 2011, published 2019).
# Tests used:
# [1] = system: COLO699N lung cancer cell line; assay: Sulforhodamine B viability assay, COLO699N; format: cell-based, human; parameters: key to SRB Average: absorbance (optical density) at 570 nm, second wavelength subtracted; details: for Average SRB 24 h / Average SRB 48 h / Average SRB 72 h: COLO699N Run 1; for ABSORBANCE: COLO699N, 0.1 μg/mL cisplatin
# Description: (§1) Three different viability assays were chosen to complement each other and yielded results dependent on concentration and cell line: the Methyl Tetrazolium dye assay, the Sulforhodamine B fluorescent dye assay, and the Crystal Violet dye assay.
# (§2) The Sulforhodamine B and Crystal Violet assays provide information about protein and were used to complement the Methyl-Tetrazolium dye assay. […] It is used for the quantification of cellular proteins of cultured cells. The assay using Crystal Violet, a dye that binds electrostatically to proteins and stains DNA, provides a reliable, simple assay for measuring viability of cells.
# (§3) The Methyl Tetrazolium, Sulforhodamine B, and Crystal Violet assays were used to assess cell viabilities. The incubation times were 24 hours, 48 hours, and 72 hours. The Nerium oleander extract Anvirzel™ (a hot water extract of oleander obtained from Salud Integral, Honduras) was tested in concentrations ranging from 0.01 ng/mL to 10 ng/mL.
# (§4) Cells were detached by trypsinization (Trypsin-0.25% EDTA, Invitrogen, 25200-072) during the logarithmic phase of culture growth and plated in 96-well plates (18.000 cells/well) (Corning, Costar 359) in a final volume of 200 μl of medium per well. […] The absorbance was measured after 24 hours, 48 hours, and 72 hours of incubation.
# (§5) For the Sulforhodamine B assay, 96-well plates were fixed by 10% trichloroacetic acid (Fluka, 91228) and were incubated at 4° C. for 1 hour. Afterwards, plates were rinsed with water and cells were stained with 0.4% Sulforhodamine B (Sigma, 341738), dissolved in 1% acetic acid (Carlo Ebra, 401422) for 15 minutes at room temperature (RT). The unbound stain was washed twice with 1% acetic acid. Finally, 10 mM Tris Buffer pH 10.5 (Sigma, T6791) was added to dissolve the dye.
# (§6) The optical density of each plate was measured on a μQuant spectrophotometer and the data were analyzed with Gen5 software (μQuant Biomolecular Spectrophotometer MQX200 and Gen5™ Microplate Data Collection & Analysis software, BioTek® Instruments. Inc, April 2008). Absorbance was measured at 570 nm for all assays and a second wavelength was measured in order to subtract noise. For the Methyl-Tetrazolium assay this second wavelength was 630 nm and for the Sulforhodamine B and Crystal Violet assays it was 690 nm.
# HT55 (colorectal cancer) = assay: Sulforhodamine B viability assay, HT55; format: cell-based, human; parameters: key: absorbance (optical density) at 570 nm, second wavelength subtracted
# Description: as §1, §2, §3, §4, §5, §6
smiles,measurement,setting,value
N.N.[Cl][Pt][Cl] [cisplatin],Average SRB 24 h,[1]; 0.1 μg/ml CDDP,1.552
same,Average SRB 48 h,"[1]; 0.1 μg/ml CDDP, 48 h",1.317
same,Average SRB 72 h,"[1]; 0.1 μg/ml CDDP, 72 h",1.658
same,Average SRB 24 h,[1]; 1 μg/ml CDDP,1.526
same,Average SRB 48 h,"[1]; 1 μg/ml CDDP, 48 h",1.388
same,Average SRB 72 h,"[1]; 1 μg/ml CDDP, 72 h",1.152
same,Average SRB 24 h,[1]; 10 μg/ml CDDP,1.384
same,Average SRB 48 h,"[1]; 10 μg/ml CDDP, 48 h",1.524
same,Average SRB 72 h,"[1]; 10 μg/ml CDDP, 72 h",0.922
same,Average SRB 24 h,[1]; 100 μg/ml CDDP,1.085
same,Average SRB 48 h,"[1]; 100 μg/ml CDDP, 48 h",1.452
same,Average SRB 72 h,"[1]; 100 μg/ml CDDP, 72 h",1.114
same,ABSORBANCE,[1]; 48 h,1.975
same,ABSORBANCE,[1]; 72 h,2.145
same,SRB Average,"[1]; Run 2, 24 h, 0.1 μg/ml CDDP",1.709
same,SRB Average,"[1]; Run 2, 24 h, 1 μg/ml CDDP",1.61
same,SRB Average,"[1]; Run 2, 24 h, 10 μg/ml CDDP",1.523
same,SRB Average,"[1]; Run 2, 24 h, 100 μg/ml CDDP",1.354
same,SRB Average,"[1]; Run 2, 48 h, 0.1 μg/ml CDDP",1.975
same,SRB Average,"[1]; Run 2, 48 h, 1 μg/ml CDDP",1.253
same,SRB Average,"[1]; Run 2, 48 h, 10 μg/ml CDDP",1.27
same,SRB Average,"[1]; Run 2, 48 h, 100 μg/ml CDDP",1.256
same,SRB Average,"[1]; Run 2, 72 h, 0.1 μg/ml CDDP",2.145
same,SRB Average,"[1]; Run 2, 72 h, 1 μg/ml CDDP",1.256
same,SRB Average,"[1]; Run 2, 72 h, 10 μg/ml CDDP",1.524
same,SRB Average,"[1]; Run 2, 72 h, 100 μg/ml CDDP",1.312
same,SRB Average,"[1]; Run 3, 24 h, 0.1 μg/ml CDDP",1.99
same,SRB Average,"[1]; Run 3, 24 h, 1 μg/ml CDDP",1.839
same,SRB Average,"[1]; Run 3, 24 h, 10 μg/ml CDDP",1.527
same,SRB Average,"[1]; Run 3, 24 h, 100 μg/ml CDDP",1.387
same,SRB Average,"[1]; Run 3, 48 h, 0.1 μg/ml CDDP",1.978
same,SRB Average,"[1]; Run 3, 48 h, 1 μg/ml CDDP",1.092
same,SRB Average,"[1]; Run 3, 48 h, 10 μg/ml CDDP",1.259
same,SRB Average,"[1]; Run 3, 48 h, 100 μg/ml CDDP",1.218
same,SRB Average,"[1]; Run 3, 72 h, 0.1 μg/ml CDDP",1.946
same,SRB Average,"[1]; Run 3, 72 h, 1 μg/ml CDDP",1.249
same,SRB Average,"[1]; Run 3, 72 h, 10 μg/ml CDDP",1.014
same,SRB Average,"[1]; Run 3, 72 h, 100 μg/ml CDDP",1.033
same,SRB Average,"HT55 (colorectal cancer); HT55, Run 1, 24 h, 0.1 μg/ml CDDP",2.17
same,SRB Average,"HT55 (colorectal cancer); HT55, Run 1, 24 h, 1 μg/ml CDDP",2.229
same,SRB Average,"HT55 (colorectal cancer); HT55, Run 1, 24 h, 10 μg/ml CDDP",2.246
same,SRB Average,"HT55 (colorectal cancer); HT55, Run 1, 24 h, 100 μg/ml CDDP",2.052
same,SRB Average,"HT55 (colorectal cancer); HT55, Run 1, 48 h, 0.1 μg/ml CDDP",2.437
same,SRB Average,"HT55 (colorectal cancer); HT55, Run 1, 48 h, 1 μg/ml CDDP",2.238
same,SRB Average,"HT55 (colorectal cancer); HT55, Run 1, 48 h, 10 μg/ml CDDP",2
same,SRB Average,"HT55 (colorectal cancer); HT55, Run 1, 48 h, 100 μg/ml CDDP",2.009
same,SRB Average,"HT55 (colorectal cancer); HT55, Run 1, 72 h, 0.1 μg/ml CDDP",2.413
same,SRB Average,"HT55 (colorectal cancer); HT55, Run 1, 72 h, 1 μg/ml CDDP",2.434
same,SRB Average,"HT55 (colorectal cancer); HT55, Run 1, 72 h, 10 μg/ml CDDP",2.222
same,SRB Average,"HT55 (colorectal cancer); HT55, Run 1, 72 h, 100 μg/ml CDDP",1.875
same,SRB Average,"HT55 (colorectal cancer); HT55 Run 2, 24 h, 0.1 μg/ml CDDP",2.445
same,SRB Average,"HT55 (colorectal cancer); HT55 Run 2, 24 h, 1 μg/ml CDDP",2.327
same,SRB Average,"HT55 (colorectal cancer); HT55 Run 2, 24 h, 10 μg/ml CDDP",2.387
same,SRB Average,"HT55 (colorectal cancer); HT55 Run 2, 24 h, 100 μg/ml CDDP",2.766
same,SRB Average,"HT55 (colorectal cancer); HT55 Run 2, 48 h, 0.1 μg/ml CDDP",2.408
same,SRB Average,"HT55 (colorectal cancer); HT55 Run 2, 48 h, 1 μg/ml CDDP",2.098
same,SRB Average,"HT55 (colorectal cancer); HT55 Run 2, 48 h, 10 μg/ml CDDP",1.814
same,SRB Average,"HT55 (colorectal cancer); HT55 Run 2, 48 h, 100 μg/ml CDDP",1.508
same,SRB Average,"HT55 (colorectal cancer); HT55 Run 2, 72 h, 0.1 μg/ml CDDP",2.564
same,SRB Average,"HT55 (colorectal cancer); HT55 Run 2, 72 h, 1 μg/ml CDDP",1.804
same,SRB Average,"HT55 (colorectal cancer); HT55 Run 2, 72 h, 10 μg/ml CDDP",1.74
same,SRB Average,"HT55 (colorectal cancer); HT55 Run 2, 72 h, 100 μg/ml CDDP",2.019
same,SRB Average,"HT55 (colorectal cancer); HT55 Run 3, 24 h, 0.1 μg/ml CDDP",2.101
same,SRB Average,"HT55 (colorectal cancer); HT55 Run 3, 24 h, 1 μg/ml CDDP",1.801
same,SRB Average,"HT55 (colorectal cancer); HT55 Run 3, 24 h, 10 μg/ml CDDP",2.557
same,SRB Average,"HT55 (colorectal cancer); HT55 Run 3, 24 h, 100 μg/ml CDDP",2.038
same,SRB Average,"HT55 (colorectal cancer); HT55 Run 3, 48 h, 0.1 μg/ml CDDP",2.648
same,SRB Average,"HT55 (colorectal cancer); HT55 Run 3, 48 h, 1 μg/ml CDDP",2.071
same,SRB Average,"HT55 (colorectal cancer); HT55 Run 3, 48 h, 10 μg/ml CDDP",2.649
same,SRB Average,"HT55 (colorectal cancer); HT55 Run 3, 48 h, 100 μg/ml CDDP",1.727
same,SRB Average,"HT55 (colorectal cancer); HT55 Run 3, 72 h, 0.1 μg/ml CDDP",2.177
same,SRB Average,"HT55 (colorectal cancer); HT55 Run 3, 72 h, 1 μg/ml CDDP",1.424
same,SRB Average,"HT55 (colorectal cancer); HT55 Run 3, 72 h, 10 μg/ml CDDP",2.784
same,SRB Average,"HT55 (colorectal cancer); HT55 Run 3, 72 h, 100 μg/ml CDDP",1.831
